# Experimental data: PMC7136958, “Targeting the pregnane X receptor using microbial metabolite mimicry” (EMBO Molecular Medicine, 2020)
# “And” between values parts separate entries of the source, which are not always exact repeats. Equal entries are not always repeated.
# Biological target: T1, PARP 1 (Homo sapiens, UniProt P09874)
# T1 construct: purchased Reaction Biology Corp. (RBC) PAR-21-346
# Assay: PARP assay (Reaction Biology)
# Format: biochemical
# Conditions: replicates
# Description: The following […] assays (HDAC, SIRT1, PRMT1, PARP1, p300, pCAF) were performed by Reaction Biology Corp. FKK6 was screened at a single concentration of 10 μM in duplicate in two separate experiments. The appropriate controls for the individual assays are published. The overall […]
# enzyme activity in the assay is reported as a % activity in DMSO control wells. Control IC50 […]
# Briefly, for the Sirtuin (SIRT1) assay, human SIRT1 (GenBank
# Accession No. NM012238) full -length N-terminal His-tag protein (MW 83.2 kDa) was purified after expression in E. coli. The reaction buffer was freshly prepared and constituted 50 mM Tris-HC l ( p H 8), 137 mM NaCl, 2.7 mM KCl, 1 mM MgCl2, and just before use, 1 mg/mL BSA and 1% DMSO was added. The substrate was a fluorogenic acetylated peptide of p53 residues 379-382 (RHKK (Ac)- AM C) . In th e multi-well format, the 2X enzyme was mixed with the reaction buffer followed by compound (in 100% DMSO) titration via Acoustic technology (Echo550; LabCyte Inc, Sunnyvale, CA) in the nanoliter range. The mixture was spun down and 2X substrate (including NAD+) was added to initiate the reaction at 30° C at 2h under seal. […] Fluorescence kinetic measurements were conducted for 1.5 h in 15 min intervals using Envision (Ex 360nm/Em 460nm). […] The compound mixture was placed on filter paper and washed with 0.75% phosphoric acid and radioactivity counted. […]
# T1 sequence (P09874 whole entry, species assumed): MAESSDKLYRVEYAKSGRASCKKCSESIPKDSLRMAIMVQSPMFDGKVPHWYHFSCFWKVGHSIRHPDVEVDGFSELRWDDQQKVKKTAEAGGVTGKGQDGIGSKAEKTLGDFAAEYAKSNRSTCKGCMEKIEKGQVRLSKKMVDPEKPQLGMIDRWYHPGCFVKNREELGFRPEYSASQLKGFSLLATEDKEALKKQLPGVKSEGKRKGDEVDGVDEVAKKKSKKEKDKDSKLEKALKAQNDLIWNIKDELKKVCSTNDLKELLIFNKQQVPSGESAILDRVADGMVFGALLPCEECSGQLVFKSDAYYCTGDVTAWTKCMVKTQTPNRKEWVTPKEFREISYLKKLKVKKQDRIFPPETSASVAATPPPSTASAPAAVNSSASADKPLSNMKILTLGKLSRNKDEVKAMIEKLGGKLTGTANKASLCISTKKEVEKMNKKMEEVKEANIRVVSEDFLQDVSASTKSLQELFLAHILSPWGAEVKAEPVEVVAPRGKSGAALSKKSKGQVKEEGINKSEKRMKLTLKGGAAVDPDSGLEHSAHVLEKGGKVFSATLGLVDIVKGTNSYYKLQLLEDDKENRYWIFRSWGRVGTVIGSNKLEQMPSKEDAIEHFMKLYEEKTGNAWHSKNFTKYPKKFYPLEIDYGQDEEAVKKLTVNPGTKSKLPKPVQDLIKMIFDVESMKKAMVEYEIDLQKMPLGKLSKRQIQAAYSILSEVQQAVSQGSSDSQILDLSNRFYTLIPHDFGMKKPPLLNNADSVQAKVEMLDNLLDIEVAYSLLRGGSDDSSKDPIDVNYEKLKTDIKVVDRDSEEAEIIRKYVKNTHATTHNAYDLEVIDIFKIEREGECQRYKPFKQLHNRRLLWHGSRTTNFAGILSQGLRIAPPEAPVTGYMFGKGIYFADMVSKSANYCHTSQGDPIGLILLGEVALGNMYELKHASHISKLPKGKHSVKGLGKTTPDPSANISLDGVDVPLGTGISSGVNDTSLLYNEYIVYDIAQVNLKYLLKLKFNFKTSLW
compound,measurement,setting,value
C#CCC(O)(c1ccncc1)c1cc2ccccc2n1S(=O)(=O)c1ccccc1 (centres unmarked) [FKK6],% Enzyme Activity to DMSO controls,10 μM,98.25% and 91.38% and 91.03%
same,remaining activity at 10 µM,read-out: % Enzyme Activity to DMSO controls,99.2%
